In patent publication US10676431B2, “Phenylpyrrolidinone formyl peptide 2 receptor agonists” (BRISTOL-MYERS SQUIBB COMPANY, priority 2018, dated 2020):

Assays:
[1] = molecular target: human FPR2 (Homo sapiens (Human), UniProt P25090); assay: FPR2 cyclic adenosine monophosphate (cAMP) assay; type: cell-based; conditions: CHO cells overexpressing human FPR2; forskolin 5 μM, IBMX 200 μM; inhibition of cAMP production, HTRF; read-out: hFPR2 cAMP2 EC50
Method in brief: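 CHO cells overexpressing human FPR2 (2,000/well) or FPR1 (4,000/well) incubated 30 min at room temperature with compound (0.020 nM–100 μM, 1% DMSO), IBMX 200 μM and forskolin (5 μM for FPR2, 10 μM for FPR1). Intracellular cAMP read by HTRF against a cAMP standard curve; inhibition of cAMP production fitted to a 4-parameter logistic.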

[2] = molecular target: human FPR1 (Homo sapiens (Human), UniProt P21462); assay: FPR1 cyclic adenosine monophosphate (cAMP) assay; type: cell-based; conditions: CHO cells overexpressing human FPR1; forskolin 10 μM, IBMX 200 μM; inhibition of cAMP production, HTRF; read-out: hFPR1 cAMP EC50
Method in brief: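 CHO cells overexpressing human FPR1 (4,000 per well) were incubated 30 min at room temperature with compound (0.020 nM–100 μM, 1% DMSO), 10 μM forskolin and 200 μM IBMX. Intracellular cAMP was read by HTRF. Inhibition of cAMP production was fitted to a 4-parameter logistic equation.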

human FPR2, sequence (P25090 whole entry): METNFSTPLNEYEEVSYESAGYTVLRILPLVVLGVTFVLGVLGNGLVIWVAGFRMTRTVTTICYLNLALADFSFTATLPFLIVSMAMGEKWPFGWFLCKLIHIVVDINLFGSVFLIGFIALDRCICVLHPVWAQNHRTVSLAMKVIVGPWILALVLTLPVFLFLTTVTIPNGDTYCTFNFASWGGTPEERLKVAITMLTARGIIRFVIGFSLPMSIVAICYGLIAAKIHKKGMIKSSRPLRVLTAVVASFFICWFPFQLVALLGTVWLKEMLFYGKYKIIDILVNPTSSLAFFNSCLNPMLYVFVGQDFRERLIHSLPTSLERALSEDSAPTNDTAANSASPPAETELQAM
human FPR1, sequence (P21462 whole entry): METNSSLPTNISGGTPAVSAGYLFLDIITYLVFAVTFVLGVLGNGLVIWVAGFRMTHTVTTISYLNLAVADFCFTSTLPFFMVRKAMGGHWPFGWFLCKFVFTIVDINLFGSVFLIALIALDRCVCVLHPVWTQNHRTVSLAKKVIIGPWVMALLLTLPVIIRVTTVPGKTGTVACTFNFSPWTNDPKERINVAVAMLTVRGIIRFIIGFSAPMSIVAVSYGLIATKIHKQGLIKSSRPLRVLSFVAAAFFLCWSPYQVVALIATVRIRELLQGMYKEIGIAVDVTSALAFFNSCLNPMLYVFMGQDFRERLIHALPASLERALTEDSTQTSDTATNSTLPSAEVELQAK

SMILES | EC50 [1] [nM] | EC50 [2] [nM]
CS(=O)(=O)Nc1ccccc1-c1ccc(N2CC[C@@H](NC(=O)Nc3ccc(C(F)(F)F)cc3F)C2=O)c(C2CC2)c1 [Example 43] | 3.3 | 120
O=C(Nc1ccc(Cl)cc1)N[C@@H]1CCN(c2ccc(-c3ccccc3F)c(F)c2F)C1=O [Example 16] | 12 | 120
CP(C)(=O)c1ccccc1-c1ccc(N2CC(CO)[C@@H](NC(=O)Nc3ccc(Cl)cc3F)C2=O)c(F)c1F (some centres unmarked) [Example 127] | 18 | 920
CC(N)c1cccc(-c2ccc(N3CC[C@@H](NC(=O)Nc4ccc(Cl)cc4)C3=O)c(F)c2F)c1 (some centres unmarked) [Example 22] | 33 | 1500
CP(C)(=O)c1ccccc1-c1ccc(N2CC(CO)[C@@H](NC(=O)Nc3ccc(C(F)(F)F)cc3F)C2=O)c(F)c1F (some centres unmarked) [Example 124] | 0.79 | 760
CP(C)(=O)c1ccccc1-c1ccc(N2CC[C@@H](NC(=O)Nc3ccc(Cl)cc3F)C2=O)c2c1OC(F)(F)O2 [Example 106] | 3.1 | 3.5
CC1C[C@@H](NC(=O)Nc2ccc(Cl)cc2F)C(=O)N1c1ccc(-c2ccccc2S(C)(=O)=O)c(F)c1F (some centres unmarked) [Example 129] | 2.4 | 19
CP(C)(=O)c1ncccc1-c1ccc(N2CC[C@@H](NC(=O)Nc3ccc(C(F)(F)F)cc3F)C2=O)c(F)c1F [Example 73, (R)-1-(1-(4-(2-(dimethylphosphoryl)pyridin-3-yl)-2,3-difluorophenyl)-2-oxopyrrolidin-3-yl)-3-(2-fluoro-4-(trifluoromethyl)phenyl)urea] | 0.89 | 170
COC[C@@H]1C[C@@H](NC(=O)Nc2ccc(C(F)(F)F)cc2F)C(=O)N1c1ccc(-c2ccccc2P(C)(C)=O)c(F)c1F [Example 90] | 5.1 | 1400
CP(C)(=O)c1ccccc1-c1ccc(N2CC[C@@H](NC(=O)Nc3ccc(C(F)(F)F)cc3F)C2=O)c(Cl)c1Cl [Example 80] | 1.4 | 86
CCP(=O)(CC)c1ccccc1-c1ccc(N2CC[C@@H](NC(=O)Nc3ccc(Cl)cc3F)C2=O)c(F)c1F [Example 75] | 3.4 | 1180
COc1ccc(NC(=O)N[C@@H]2CCN(c3ccc(-c4ccccc4S(C)(=O)=O)c(F)c3F)C2=O)cc1 [Example 54] | 5.5 | 900
CCP(=O)(CC)c1ncccc1-c1ccc(N2CC[C@@H](NC(=O)Nc3ccc(C(F)(F)F)cc3F)C2=O)c(F)c1F [Example 100] | 2 | 92
